Reference: US10597388B2, “Pyridazinone herbicides” (FMC CORPORATION, priority 2014, dated 2020)

Legend:
Test in all cases: Test C greenhouse herbicide test, pre- and postemergence
Format in all cases: in vivo
[1] = test system: ryegrass, Italian (Italian ryegrass, Lolium multiflorum)
Procedure, shortened: (§1)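 Greenhouse pots; pre-em on seeded loam:sand blend, post-em on 2–18 cm plants (1–4 leaf) in sphagnum peat/vermiculite medium. Formulation: non-phytotoxic solvent + surfactant. Read-out: visual % control (0–100) vs controls at 13–15 d.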

[2] = test system: velvetleaf (Abutilon theophrasti)
Procedure, shortened: as §1

[3] = test system: lambsquarters (Chenopodium album)
Procedure, shortened: as §1

[4] = test system: blackgrass (Alopecurus myosuroides)
Procedure, shortened: as §1

[5] = test system: oilseed rape (Brassica napus)
Procedure, shortened: as §1

[6] = test system: foxtail, giant (giant foxtail, Setaria faberii)
Procedure, shortened: as §1

[7] = test system: pigweed (Amaranthus retroflexus)
Procedure, shortened: as §1

[8] = test system: wheat (winter wheat, Triticum aestivum)
Procedure, shortened: as §1

[9] = test system: nutsedge, yellow (yellow nutsedge, Cyperus esculentus)
Procedure, shortened: as §1

soybean (Glycine max) = test system: soybean (Glycine max)
Procedure, shortened: as §1

[10] = test system: ragweed (common ragweed, Ambrosia elatior)
Procedure, shortened: as §1

corn (Zea mays) = test system: corn (Zea mays)
Procedure, shortened: as §1

[11] = test system: crabgrass, large (large crabgrass, Digitaria sanguinalis)
Procedure, shortened: as §1

[12] = test system: galium (catchweed bedstraw, Galium aparine)
Procedure, shortened: as §1

[13] = test system: barnyardgrass (Echinochloa crus-galli)
Procedure, shortened: as §1

[14] = Postemergence, 31 g ai/ha, 0 to 100 scale (0 no effect, 100 complete control)
[15] = Postemergence, 125 g ai/ha, scale 0 to 100, 0 is no effect, 100 is complete control
[16] = Postemergence, 250 g ai/ha, scale 0 to 100, 0 no effect, 100 complete control, 13 to 15 d
[17] = Preemergence, 31 g ai/ha, scale 0 to 100, 0 is no effect, 100 is complete control
[18] = Preemergence, 62 g ai/ha, scale 0 to 100, 0 is no effect, 100 is complete control
[19] = Preemergence, 125 g ai/ha, scale 0 to 100, 0 is no effect, 100 is complete control
[20] = Preemergence, 250 g ai/ha, scale 0 to 100, 0 no effect, 100 complete control
[21] = postemergence, 62 g ai/ha, scale 0 to 100, 0 no effect, 100 complete control

## CCc1sc2ccc(C)cc2c1-c1c(O)c(C)nn(C)c1=O [Compound 47]
[1]; [14]
  Ryegrass, Italian plant response rating: 0
[1]; [15]
  Plant response rating, Ryegrass, Italian: 25
[1]; [16]
  Plant response rating, Ryegrass, Italian: 30
[1]; [17]
  Plant response rating, Ryegrass, Italian: 0
[1]; [18]
  Plant response rating, Ryegrass, Italian: 20
[1]; [19]
  Plant response rating, Ryegrass, Italian: 45
[1]; [20]
  Ryegrass, Italian plant response rating: 50
[1]; [21]
  Ryegrass, Italian plant response rating: 10
[2]; [14]
  Velvetleaf plant response rating: 70
[2]; [15]
  Plant response rating, Velvetleaf: 95
[2]; [16]
  Plant response rating, Velvetleaf: 95
[2]; [17]
  Plant response rating, Velvetleaf: 65
[2]; [18]
  Plant response rating, Velvetleaf: 90
[2]; [19]
  Plant response rating, Velvetleaf: 100
[2]; [20]
  Velvetleaf plant response rating: 100
[2]; [21]
  Velvetleaf plant response rating: 90
[3]; [14]
  Lambsquarters plant response rating: 85
[3]; [15]
  Plant response rating, Lambsquarters: 98
[3]; [16]
  Plant response rating, Lambsquarters: 85
[3]; [17]
  Plant response rating, Lambsquarters: 100
[3]; [18]
  Plant response rating, Lambsquarters: 100
[3]; [19]
  Plant response rating, Lambsquarters: 100
[3]; [20]
  Lambsquarters plant response rating: 100
[3]; [21]
  Lambsquarters plant response rating: 85
[4]; [14]
  Blackgrass plant response rating: 0
[4]; [15]
  Plant response rating, Blackgrass: 30
[4]; [16]
  Plant response rating, Blackgrass: 30
[4]; [17]
  Plant response rating, Blackgrass: 0
[4]; [18]
  Plant response rating, Blackgrass: 30
[4]; [19]
  Plant response rating, Blackgrass: 40
[4]; [20]
  Blackgrass plant response rating: 90
[4]; [21]
  Blackgrass plant response rating: 20
[5]; [14]
  Oilseed Rape plant response rating: 0
[5]; [15]
  Plant response rating, Oilseed Rape: 5
[5]; [16]
  Plant response rating, Oilseed Rape: 10
[5]; [17]
  Plant response rating, Oilseed Rape: 0
[5]; [18]
  Plant response rating, Oilseed Rape: 0
[5]; [19]
  Plant response rating, Oilseed Rape: 0
[5]; [20]
  Oilseed Rape plant response rating: 10
[5]; [21]
  Oilseed Rape plant response rating: 0
[6]; [14]
  Foxtail, Giant plant response rating: 50
[6]; [15]
  Plant response rating, Foxtail, Giant: 75
[6]; [16]
  Plant response rating, Foxtail, Giant: 85
[6]; [17]
  Plant response rating, Foxtail, Giant: 15
[6]; [18]
  Plant response rating, Foxtail, Giant: 50
[6]; [19]
  Plant response rating, Foxtail, Giant: 85
[6]; [20]
  Foxtail, Giant plant response rating: 100
[6]; [21]
  Foxtail, Giant plant response rating: 65
[7]; [14]
  Pigweed plant response rating: 90
[7]; [15]
  Plant response rating, Pigweed: 98
[7]; [16]
  Plant response rating, Pigweed: 98
[7]; [17]
  Plant response rating, Pigweed: 100
[7]; [18]
  Plant response rating, Pigweed: 100
[7]; [19]
  Plant response rating, Pigweed: 100
[7]; [20]
  Pigweed plant response rating: 100
[7]; [21]
  Pigweed plant response rating: 90
[8]; [14]
  Wheat plant response rating: 0
[8]; [15]
  Plant response rating, Wheat: 0
[8]; [16]
  Plant response rating, Wheat: 0
[8]; [17]
  Plant response rating, Wheat: 0
[8]; [18]
  Plant response rating, Wheat: 0
[8]; [19]
  Plant response rating, Wheat: 0
[8]; [20]
  Wheat plant response rating: 0
[8]; [21]
  Wheat plant response rating: 0
[9]; [14]
  Nutsedge, Yellow plant response rating: 40
[9]; [15]
  Plant response rating, Nutsedge, Yellow: 80
[9]; [16]
  Plant response rating, Nutsedge, Yellow: 90
[9]; [17]
  Plant response rating, Nutsedge, Yellow: 35
[9]; [18]
  Plant response rating, Nutsedge, Yellow: 45
[9]; [19]
  Plant response rating, Nutsedge, Yellow: 75
[9]; [20]
  Nutsedge, Yellow plant response rating: 85
[9]; [21]
  Nutsedge, Yellow plant response rating: 70
Soybean (Glycine max); [14]
  Soybean plant response rating: 0
Soybean (Glycine max); [15]
  Plant response rating, Soybean: 10
Soybean (Glycine max); [16]
  Plant response rating, Soybean: 15
Soybean (Glycine max); [17]
  Plant response rating, Soybean: 0
Soybean (Glycine max); [18]
  Plant response rating, Soybean: 0
Soybean (Glycine max); [19]
  Plant response rating, Soybean: 10
Soybean (Glycine max); [20]
  Soybean plant response rating: 30
Soybean (Glycine max); [21]
  Soybean plant response rating: 10
[10]; [14]
  Ragweed plant response rating: 80
[10]; [15]
  Plant response rating, Ragweed: 98
[10]; [16]
  Plant response rating, Ragweed: 100
[10]; [17]
  Plant response rating, Ragweed: 50
[10]; [18]
  Plant response rating, Ragweed: 85
[10]; [19]
  Plant response rating, Ragweed: 98
[10]; [20]
  Ragweed plant response rating: 100
[10]; [21]
  Ragweed plant response rating: 98
Corn (Zea mays); [14]
  Corn plant response rating: 0
Corn (Zea mays); [15]
  Plant response rating, Corn: 10
Corn (Zea mays); [16]
  Plant response rating, Corn: 5
Corn (Zea mays); [17]
  Plant response rating, Corn: 0
Corn (Zea mays); [18]
  Plant response rating, Corn: 0
Corn (Zea mays); [19]
  Plant response rating, Corn: 0
Corn (Zea mays); [20]
  Corn plant response rating: 5
Corn (Zea mays); [21]
  Corn plant response rating: 5
[11]; [14]
  Crabgrass, Large plant response rating: 20
[11]; [15]
  Plant response rating, Crabgrass, Large: 40
[11]; [16]
  Plant response rating, Crabgrass, Large: 35
[11]; [17]
  Plant response rating, Crabgrass, Large: 0
[11]; [18]
  Plant response rating, Crabgrass, Large: 30
[11]; [19]
  Plant response rating, Crabgrass, Large: 60
[11]; [20]
  Crabgrass, Large plant response rating: 95
[11]; [21]
  Crabgrass, Large plant response rating: 30
[12]; [14]
  Galium plant response rating: 80
[12]; [15]
  Plant response rating, Galium: 90
[12]; [16]
  Plant response rating, Galium: 90
[12]; [17]
  Plant response rating, Galium: 90
[12]; [18]
  Plant response rating, Galium: 95
[12]; [19]
  Plant response rating, Galium: 98
[12]; [20]
  Galium plant response rating: 98
[12]; [21]
  Galium plant response rating: 90
[13]; [14]
  Barnyardgrass plant response rating: 15
[13]; [15]
  Plant response rating, Barnyardgrass: 85
[13]; [16]
  Plant response rating, Barnyardgrass: 90
[13]; [17]
  Plant response rating, Barnyardgrass: 5
[13]; [18]
  Plant response rating, Barnyardgrass: 20
[13]; [19]
  Plant response rating, Barnyardgrass: 85
[13]; [20]
  Barnyardgrass plant response rating: 100
[13]; [21]
  Barnyardgrass plant response rating: 55
